According to PubChem BioAssay AID1033 (Sanford-Burnham Center for Chemical Genomics, 2008):
Active and inactive are the calls of the source. How the calls were made is not given here.

target: Chaperone protein DnaK (Escherichia coli (strain K12)) (UniProt P0A6Y8); assay: E. coli DnaK SBD ligand binding – biophysical, NMR, chaperone (AID 1033); conditions: Purified DnaK SBD
Sequence (P0A6Y8 whole entry, looked up): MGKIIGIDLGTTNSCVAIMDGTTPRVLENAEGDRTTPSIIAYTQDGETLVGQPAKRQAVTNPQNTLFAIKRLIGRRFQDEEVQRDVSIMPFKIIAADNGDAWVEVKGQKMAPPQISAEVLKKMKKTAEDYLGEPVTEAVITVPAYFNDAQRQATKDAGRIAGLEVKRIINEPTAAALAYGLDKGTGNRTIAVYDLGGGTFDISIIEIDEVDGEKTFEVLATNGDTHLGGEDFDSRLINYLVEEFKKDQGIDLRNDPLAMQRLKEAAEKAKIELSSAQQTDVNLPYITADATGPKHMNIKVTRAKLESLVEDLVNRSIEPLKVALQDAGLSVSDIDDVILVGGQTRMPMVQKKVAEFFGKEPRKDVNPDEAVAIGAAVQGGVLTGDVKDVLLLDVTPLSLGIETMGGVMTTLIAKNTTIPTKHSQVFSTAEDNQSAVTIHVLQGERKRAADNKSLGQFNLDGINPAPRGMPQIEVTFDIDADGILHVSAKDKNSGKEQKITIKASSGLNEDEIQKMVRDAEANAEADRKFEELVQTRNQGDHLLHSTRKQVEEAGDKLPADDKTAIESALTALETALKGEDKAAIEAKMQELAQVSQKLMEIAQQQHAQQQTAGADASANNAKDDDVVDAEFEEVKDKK

**Q.** How did the Kd turn out when `Cc1nccc(-c2cccc(N)c2)n1` was run?
**A.** Its Kd is > 4 mM (inactive).

**Q.** With `CC(=O)Nc1cccc(NC(=O)c2ccco2)c1` as the compound, how does the Kd read?
**A.** Its Kd is > 4 mM (inactive).

**Q.** `O=C(NC1CCS(=O)(=O)C1)C1CCCCC1` (stereo not given) was tested. Which Kd did it give?
**A.** Its Kd is > 4 mM (inactive).

**Q.** `Cn1c(CO)nc2cc(N)ccc21` was tested. Which Kd did it give?
**A.** The Kd was > 4 mM (inactive).

**Q.** Which Kd does the source give for `Cc1occc1C(=O)NCc1ccccc1F` here?
**A.** The Kd was > 4 mM (inactive).

**Q.** Which Kd does the source give for `O=C(O)c1ccc2c(c1)OCCCO2` here?
**A.** The Kd was > 4 mM (inactive).

**Q.** How did the Kd turn out when `CSc1nsc(SCc2cnc(C)nc2N)n1` was run?
**A.** Its Kd is > 4 mM (inactive).

**Q.** Which Kd does the source give for `Cn1c(=O)n(C)c2cc(C(N)=O)ccc21` here?
**A.** Its Kd is > 4 mM (inactive).

**Q.** With `NC(=O)C1CCCN1S(=O)(=O)c1ccc(F)cc1` (stereo not given) as the compound, how does the Kd read?
**A.** The Kd was > 4 mM (inactive).

**Q.** Which Kd does the source give for `COc1cc(-c2coc3cc(OC)c(OC)c(OC)c3c2=O)cc(OC)c1OC` here?
**A.** Its Kd is > 4 mM (inactive).

**Q.** Which Kd does the source give for `CCn1nccc1C(=O)Nc1ccc(Cl)cc1Cl` here?
**A.** The Kd was > 4 mM (inactive).

**Q.** `C=CCc1ccc2c(c1)OCO2` was tested. Which Kd did it give?
**A.** The Kd was > 4 mM (inactive).

**Q.** For `Cn1c(=O)[nH]c(=O)c2c1ncn2CCN1CCCCC1`, which Kd is on record?
**A.** The Kd was > 4 mM (inactive).

**Q.** With `COc1ccc(-c2coc3cc(O)ccc3c2=O)c(O)c1O` as the compound, how does the Kd read?
**A.** The Kd was > 4 mM (inactive).

**Q.** Which Kd does the source give for `Cc1nc2cc(NC(=O)Nc3nccs3)ccc2n1C` here?
**A.** The Kd was > 4 mM (inactive).

**Q.** `Nc1nc(=S)n2c(n1)oc1ccccc12` was tested. Which Kd did it give?
**A.** The Kd was > 4 mM (inactive).

**Q.** Which Kd does the source give for `Cc1sc(N)c(C(N)=O)c1C` here?
**A.** Its Kd is > 4 mM (inactive).

**Q.** How did the Kd turn out when `O=C(NCc1cccs1)c1ccc2c(c1)OCCO2` was run?
**A.** The Kd was > 4 mM (inactive).

**Q.** With `Cn1c(SCC(N)=O)nnc1-c1c[nH]c2ccccc12` as the compound, how does the Kd read?
**A.** Its Kd is > 4 mM (inactive).

**Q.** Which Kd does the source give for `CCc1cccc(C)c1NC(=O)c1cc(C)oc1C` here?
**A.** Its Kd is > 4 mM (inactive).

**Q.** For `NC(=O)c1cc(N)cc(C(N)=O)c1`, which Kd is on record?
**A.** Its Kd is > 4 mM (inactive).

**Q.** With `Nc1oncc1-c1ccccn1` as the compound, how does the Kd read?
**A.** The Kd was > 4 mM (inactive).

**Q.** How did the Kd turn out when `CC(=O)c1c(C)nc(-c2cccs2)n1O` was run?
**A.** Its Kd is > 4 mM (inactive).

**Q.** For `CCOC(=O)N1CCCC1c1cccnc1` (stereo not given), which Kd is on record?
**A.** Its Kd is > 4 mM (inactive).

**Q.** How did the Kd turn out when `Nc1[nH]c(=S)ncc1S(=O)(=O)c1ccccc1` was run?
**A.** The Kd was > 4 mM (inactive).

**Q.** For `N[C@@H](CCC(=O)N[C@@H](CS)C(=O)NCC(=O)O)C(=O)O`, which Kd is on record?
**A.** The Kd was > 4 mM (inactive).

**Q.** With `Cc1nc(-c2ccc(NS(C)(=O)=O)cc2)cs1` as the compound, how does the Kd read?
**A.** Its Kd is > 4 mM (inactive).

**Q.** For `N=Cc1c(O)n(-c2cccc(Cl)c2)c(=O)[nH]c1=O`, which Kd is on record?
**A.** Its Kd is > 4 mM (inactive).

**Q.** How did the Kd turn out when `CC(=O)N1CC2(C)CN(C(C)=O)CC(C)(C1)C2O` (stereo not given) was run?
**A.** The Kd was > 4 mM (inactive).

**Q.** For `CC(=O)Nc1ccc2c(c1)CCCC2=O`, which Kd is on record?
**A.** Its Kd is > 4 mM (inactive).

**Q.** With `Nc1ccc(S(=O)(=O)Nc2ccc(F)cc2F)cc1` as the compound, how does the Kd read?
**A.** The Kd was > 4 mM (inactive).

**Q.** `Cc1cc(O)cc(O)c1C(=O)O` was tested. Which Kd did it give?
**A.** The Kd was > 4 mM (inactive).

**Q.** `CC(=O)N(C)Cc1nc2ccccc2n1C` was tested. Which Kd did it give?
**A.** Its Kd is > 4 mM (inactive).

**Q.** Which Kd does the source give for `O=C1CCCC2C3CC(CN12)[C@@H]1CCCCN1C3` (stereo not given in full) here?
**A.** The Kd was > 4 mM (inactive).

**Q.** For `Cc1nc(-c2cccc(C(=O)O)c2)cs1`, which Kd is on record?
**A.** The Kd was > 4 mM (inactive).

**Q.** With `Cc1nc(NC(=O)c2cccnc2)ccc1Br` as the compound, how does the Kd read?
**A.** The Kd was > 4 mM (inactive).

**Q.** `COc1ccc(-c2cc3nc4n(c(=O)c3s2)CCC4)cc1` was tested. Which Kd did it give?
**A.** The Kd was > 4 mM (inactive).

**Q.** With `O=C(Nc1cccnc1)Nc1ccc2c(c1)OCO2` as the compound, how does the Kd read?
**A.** Its Kd is > 4 mM (inactive).

**Q.** For `COc1cc(C(=O)NCC2CCCO2)cc(OC)c1OC` (stereo not given), which Kd is on record?
**A.** The Kd was > 4 mM (inactive).

**Q.** Which Kd does the source give for `CSc1ccc(/C=N/n2c(C)nnc2C)cc1` here?
**A.** The Kd was > 4 mM (inactive).

**Q.** `O=C1Nc2ccc(S(=O)(=O)NCCO)c3cccc1c23` was tested. Which Kd did it give?
**A.** The Kd was > 4 mM (inactive).

**Q.** With `CSc1ccccc1C(=O)N1CCOCC1` as the compound, how does the Kd read?
**A.** Its Kd is > 4 mM (inactive).

**Q.** For `C/C(=N\NC(N)=S)C(=O)O`, which Kd is on record?
**A.** The Kd was > 4 mM (inactive).

**Q.** With `O=C(O)c1ccc(-n2cncn2)cc1` as the compound, how does the Kd read?
**A.** The Kd was > 4 mM (inactive).

**Q.** How did the Kd turn out when `CCCc1cc2c(c(NC(C)=O)n1)c(=O)oc1ccccc12` was run?
**A.** The Kd was > 4 mM (inactive).

**Q.** `O=C(c1cnsn1)N1CCN(c2ccccn2)CC1` was tested. Which Kd did it give?
**A.** Its Kd is > 4 mM (inactive).

**Q.** With `CN1CCN(C2CCN(Cc3ccccc3)CC2)CC1` as the compound, how does the Kd read?
**A.** The Kd was > 4 mM (inactive).

**Q.** `Cc1cc(C)n(-c2cccc3cccnc23)n1` was tested. Which Kd did it give?
**A.** Its Kd is > 4 mM (inactive).

**Q.** How did the Kd turn out when `O=C(NC1=NCCS1)c1ccc([N+](=O)[O-])cc1Cl` was run?
**A.** Its Kd is > 4 mM (inactive).

**Q.** For `O=C1CCCN1c1ccc(S(=O)O)cc1`, which Kd is on record?
**A.** Its Kd is > 4 mM (inactive).
